Experimental data from US20070233400A1, “Method of calculating environmental risk of a chemical” (AMSTED Industries Incorporated, priority 2006, published 2007).

Tests used:
[1] = published sources; cited from earlier work
[2] = sand
Excerpt: Mobility it defined as the ability of a chemical to migrate in the environment. Mobility of a chemical in the environment is governed by two factors that include the physical chemistry of the chemical and the physical and chemical characteristics of the geologic environment to which the chemical is released.
To obtain a value to represent the mobility of each compound, two variables are used: Henry's Law constant (H), which focuses on the physical chemistry of the chemical and the retardation factor (R), which focuses on the physical and chemical characteristics of the geological environment. The retardation factor was calculated by first calculating the distribution coefficient using Equation 1. Kd=(Foc)(Koc) where: Kd=distribution coefficient (mL·g^−1); Koc=organic carbon partition coefficient (1/mg); Foc=fraction of organic carbon in soil (mg/mg)
Values for the organic carbon partition coefficient can be obtained from location-specific testing of soil or from various published sources. And the fraction of organic carbon in soil can be obtained from location-specific testing of soil or from various published sources.
Once the distribution coefficient is calculated, the Retardation Factor can be calculated using Equation 2. [formula] where: R is the retardation factor; ρb=bulk density of aquifer matrix (g/cm^3); Kd=distribution coefficient (mL·g^−1); η=effective porosity Henry's Law constant (H) (atm.·mol^−1·m^−3) is a measure of the tendency for organic solutes to volatilize. It is related to vapor pressure (VP) (atm.), molecular weight (MW) (g/mol); and solubility in water (Ws) (g/L) according to Equation (3): H=(VP)/(MW)(Ws) With Henry's Law constant and the retardation factor in place, the mobility of a specific compound is expressed as Equation (4): M=(H)(R) where: M=mobility; H=Henry's Law constant; R=retardation factor

[3] = oral pathway; more conservative of carcinogenic or chronic value; published sources; cited from earlier work

c1ccccc1 [benzene]
Henry's Law constant (H) [1]: 0.228 atm.·mol^−1·m^−3 | mobility factor (M) ([2]; M=(H)(R)): 0.2576 | distribution coefficient (Kd) ([2]; Foc 0.0003 mg/mg, Kd=Foc×Koc): 0.0177 mL/g | retardation factor (R) ([2]; bulk density 1.8 g/cm^3, effective porosity 0.25): 1.13 | toxicity value (T) [3]: 0.04 mg/kg-day^−1
